# ChEMBL document CHEMBL5137052, “Identification of dihydroquinolizinone derivatives with cyclic ether moieties as new anti-HBV agents” (Eur J Med Chem, 2022)
# Assays:
# Hepatitis B virus [1] = test: Antiviral activity against HBV infected in human HepG2.2.15 cells assessed as reduction in intracellular core HBV DNA level incubated for 6 days by qPCR analysis; assay type: functional, organism-based; conditions: HepG2.2.15, 144 h
# Hepatitis B virus [2] = test: Antiviral activity against HBV infected in human HepG2.2.15 cells assessed as reduction in HBsAg level in cellular supernatant by luminescence based microplate reader analysis; assay type: functional, organism-based
# Hepatitis B virus [3] = test: Antiviral activity against HBV infected in human HepG2.2.15 cells assessed as reduction in HBeAg level in cellular supernatant by luminescence based microplate reader analysis; assay type: functional, organism-based
# [4] = Neurotoxicity against NGF induced rat PC-12 cells assessed as morphological changes by measuring appearance of round cells with disappearance of neurites at 10 uM incubated for 48 hrs by phase contrast microscopic analysis; assay type: toxicity, cell-based; conditions: pc-12, 48 h
# [5] = Neurotoxicity against NGF induced rat PC-12 cells assessed as morphological changes by measuring appearance of shrunken cells with disappearance of neurites at 10 uM incubated for 48 hrs by phase contrast microscopic analysis; assay type: toxicity, cell-based; conditions: pc-12, 48 h
# [6] = Cytotoxicity against human HepG2.2.15 cells assessed as reduction in cell viability incubated for 6 days by CCK-8 assay; assay type: toxicity, cell-based, HepG2 2.2.15; conditions: for CC50 at 144 h: time 6 day
# [7] = Tmax in BALB/c mouse at 10 mg/kg, po measured up to 24 hrs by HPLC analysis; assay type: ADME, organism-based; conditions: in vivo
# [8] = AUC (0 to t) in BALB/c mouse at 10 mg/kg, po measured up to 24 hrs by HPLC analysis; assay type: ADME, organism-based; parameters: dose 10 mg/kg, time < 24 hrs, route po; conditions: in vivo
# [9] = MRT (0 to t) in BALB/c mouse at 10 mg/kg, po measured up to 24 hrs by HPLC analysis; assay type: ADME, organism-based; conditions: in vivo
# [10] = Elimination half life in BALB/c mouse at 10 mg/kg, po measured up to 24 hrs by HPLC analysis; assay type: ADME, organism-based; conditions: in vivo, read-out: beta t1/2 (converted)
# [11] = Cmax in BALB/c mouse at 10 mg/kg, po measured up to 24 hrs by HPLC analysis; assay type: ADME, organism-based; parameters: dose 10 mg/kg, time < 24 hrs, route po; conditions: in vivo
# [12] = Neurotoxicity against NGF induced rat PC-12 cells assessed as morphological changes by measuring appearance of clear neurites at 10 uM incubated for 48 hrs by phase contrast microscopic analysis; assay type: toxicity, cell-based; conditions: pc-12, 48 h
# [13] = Neurotoxicity against NGF induced rat PC-12 cells assessed as morphological changes by measuring appearance of shrunken cells at 10 uM incubated for 48 hrs by phase contrast microscopic analysis; assay type: toxicity, cell-based; conditions: pc-12, 48 h
Compound,EC50 (Hepatitis B virus [1]) [nM],EC50 (Hepatitis B virus [2]) [nM],EC50 (Hepatitis B virus [3]) [nM],IC50 (Hepatitis B virus [1]) [nM],IC50 (Hepatitis B virus [2]) [nM],IC50 (Hepatitis B virus [3]) [nM],CC50 at 144 h [6] [nM],also measured
COc1cc2c(cc1OCc1ccc3c(c1)OCO3)C[C@@H](C(C)C)n1cc(C(=O)O)c(=O)cc1-2,1.9,0.8,191,–,–,–,–,Activity [4]: Toxic; Activity [5]: Toxic
COc1cc2c(cc1OCC1COCCO1)CC(C(C)C)n1cc(C(=O)O)c(=O)cc1-2 (stereo not drawn),–,–,–,18.2,5.1,> 1000,> 50000,–
COc1cc2c(cc1OC[C@@H]1COc3cccnc3O1)C[C@H](C(C)C)n1cc(C(=O)O)c(=O)cc1-2,882,882,3190,–,–,–,–,–
COc1ccc2c(c1)OCC(COc1cc3c(cc1OC)-c1cc(=O)c(C(=O)O)cn1C(C(C)C)C3)O2 (stereo not drawn),–,–,–,52,403,> 1000,> 50000,–
COc1cc2c(cc1OC[C@H]1CCCO1)C[C@H](C(C)C)n1cc(C(=O)O)c(=O)cc1-2,37.5,3.5,3380,–,–,–,–,–
COc1cc2c(cc1OCC1CCOC1)CC(C(C)C)n1cc(C(=O)O)c(=O)cc1-2 (stereo not drawn),–,–,–,0.6,1.1,56.2,> 50000,–
COc1cc2c(cc1OCC1COc3ccc(F)cc3O1)CC(C(C)C)n1cc(C(=O)O)c(=O)cc1-2 (stereo not drawn),–,–,–,5.7,0.2,15.4,34700,Tmax [7]: 60 min; AUC(0-t) at 24 h [8]: 3.38 µM·h; MRT last at 24 h [9]: 112 min; half-life [10]: 101 min; Cmax [11]: 1440 nM
COc1cc2c(cc1OCC1COc3cccnc3O1)CC(C(C)C)n1cc(C(=O)O)c(=O)cc1-2 (stereo not drawn),–,–,–,0.5,1.9,94.9,> 50000,Tmax [7]: 30 min; AUC(0-t) at 24 h [8]: 2.38 µM·h; MRT last at 24 h [9]: 52.8 min; half-life [10]: 43.2 min; Cmax [11]: 2910 nM
COc1cc2c(cc1OCc1ccc3c(c1)OCO3)CC(C(C)C)n1cc(C(=O)O)c(=O)cc1-2 (stereo not drawn),–,–,–,5,1.6,66.7,> 50000,Tmax [7]: 49.8 min; AUC(0-t) at 24 h [8]: 4.46 µM·h; MRT last at 24 h [9]: 101 min; half-life [10]: 82.2 min; Cmax [11]: 2180 nM
COc1cc2c(cc1OCC1COc3cccc(Cl)c3O1)CC(C(C)C)n1cc(C(=O)O)c(=O)cc1-2 (stereo not drawn),–,–,–,4.3,3.4,53.2,11600,–
COc1cc2c(cc1OCc1ccc3c(c1)OCCO3)CC(C(C)C)n1cc(C(=O)O)c(=O)cc1-2 (stereo not drawn),–,–,–,13.4,0.2,10.2,34700,–
COc1cc2c(cc1OCC1CCCO1)CC(C(C)C)n1cc(C(=O)O)c(=O)cc1-2 (stereo not drawn),–,–,–,1.6,509,27,> 50000,Tmax [7]: 19.8 min; AUC(0-t) at 24 h [8]: 10.4 µM·h; MRT last at 24 h [9]: 65.4 min; half-life [10]: 39.6 min; Cmax [11]: 8840 nM
COc1cc2c(cc1OCC1COc3ccc([N+](=O)[O-])cc3O1)CC(C(C)C)n1cc(C(=O)O)c(=O)cc1-2 (stereo not drawn),–,–,–,16.5,4.6,18.2,50000,–
COCCCOc1cc2c(cc1OC)-c1cc(=O)c(C(=O)O)cn1C(C(C)C)C2 (racemic),1,1,18.2,86.3,5.1,91.2,> 50000,Tmax [7]: 11.4 min; Activity [4]: Toxic; Activity [5]: Toxic; AUC(0-t) at 24 h [8]: 17.2 µM·h; MRT last at 24 h [9]: 67.8 min; half-life [10]: 51 min; Cmax [11]: 11600 nM
COc1cc2c(cc1OCC1COc3cc(Cl)ccc3O1)CC(C(C)C)n1cc(C(=O)O)c(=O)cc1-2 (stereo not drawn),–,–,–,9.1,3.7,39.5,10600,–
COc1cc2c(cc1OCC1COc3ccc(C)cc3O1)CC(C(C)C)n1cc(C(=O)O)c(=O)cc1-2 (stereo not drawn),–,–,–,17.9,7.5,328,34700,–
COc1cc2c(cc1OC[C@@H]1CCCO1)C[C@H](C(C)C)n1cc(C(=O)O)c(=O)cc1-2,119,1.2,2010,–,–,–,–,–
COc1cc2c(cc1OCc1ccc3c(c1)OCO3)C[C@H](C(C)C)n1cc(C(=O)O)c(=O)cc1-2,124,239,2030,–,–,–,–,–
COc1cc2c(cc1OCC1COc3cc(F)ccc3O1)CC(C(C)C)n1cc(C(=O)O)c(=O)cc1-2 (stereo not drawn),–,–,–,15.5,18.4,22.7,11600,–

Compound,EC50 (Hepatitis B virus [1]) [nM],EC50 (Hepatitis B virus [2]) [nM],EC50 (Hepatitis B virus [3]) [nM],IC50 (Hepatitis B virus [1]) [nM],IC50 (Hepatitis B virus [2]) [nM],IC50 (Hepatitis B virus [3]) [nM],CC50 at 144 h [6] [nM],also measured
COc1cc2c(cc1OC[C@@H]1CCCO1)C[C@@H](C(C)C)n1cc(C(=O)O)c(=O)cc1-2,0.6,1.6,4.6,–,–,–,–,Activity [12]: Non-Toxic
COc1cc2c(cc1OC(C)c1ccc3c(c1)OCO3)CC(C(C)C)n1cc(C(=O)O)c(=O)cc1-2 (stereo not drawn),–,–,–,181,1.2,> 1000,> 50000,–
COc1cc2c(cc1OC[C@H]1CCCO1)C[C@@H](C(C)C)n1cc(C(=O)O)c(=O)cc1-2,2.1,5.1,220,–,–,–,–,Activity [13]: Toxic
COc1ccc(COc2cc3c(cc2OC)-c2cc(=O)c(C(=O)O)cn2C(C(C)C)C3)cc1OC (stereo not drawn),–,–,–,11.2,1.1,158,> 50000,–
COc1cc2c(cc1OCC1COc3ccccc3O1)CC(C(C)C)n1cc(C(=O)O)c(=O)cc1-2 (stereo not drawn),–,–,–,12.1,1.5,2,–,IC50 at 6 days [6]: 21500 nM
COCCCOc1cc2c(cc1OC)-c1cc(=O)c(C(=O)O)cn1[C@@H](C(C)C)C2,75.8,928,3270,–,–,–,–,–
COc1cc2c(cc1OCC1COc3ccc(Cl)cc3O1)CC(C(C)C)n1cc(C(=O)O)c(=O)cc1-2 (stereo not drawn),–,–,–,5.7,7.7,86.5,11600,–
COc1cc2c(cc1OCC1COc3c(F)cccc3O1)CC(C(C)C)n1cc(C(=O)O)c(=O)cc1-2 (stereo not drawn),–,–,–,29,1.5,20.6,16700,–
COc1cc2c(cc1OCC1COc3cc(Br)ccc3O1)CC(C(C)C)n1cc(C(=O)O)c(=O)cc1-2 (stereo not drawn),–,–,–,36.9,34.3,> 1000,34700,–
COc1ccc2c(c1)OC(COc1cc3c(cc1OC)-c1cc(=O)c(C(=O)O)cn1C(C(C)C)C3)CO2 (stereo not drawn),–,–,–,8.1,1.7,> 1000,31900,–
COc1cc2c(cc1OC[C@H]1COc3cccnc3O1)C[C@H](C(C)C)n1cc(C(=O)O)c(=O)cc1-2,3080,3080,12800,–,–,–,–,–
COc1cc2c(cc1OCC1COc3c(Cl)cccc3O1)CC(C(C)C)n1cc(C(=O)O)c(=O)cc1-2 (stereo not drawn),–,–,–,4.2,1.2,21,11600,–
COc1cc2c(cc1OCCC1COc3ccccc3O1)CC(C(C)C)n1cc(C(=O)O)c(=O)cc1-2 (stereo not drawn),–,–,–,1.2,18.4,16.4,11600,–
COc1cc2c(cc1OC[C@@H]1COc3cccnc3O1)C[C@@H](C(C)C)n1cc(C(=O)O)c(=O)cc1-2,86.3,6.3,70,–,–,–,–,Activity [13]: Toxic
COc1cc2c(cc1OCC1COc3ccc(Br)cc3O1)CC(C(C)C)n1cc(C(=O)O)c(=O)cc1-2 (stereo not drawn),–,–,–,13.4,24.5,127,11600,–
COc1cc2c(cc1OC[C@H]1COc3cccnc3O1)C[C@@H](C(C)C)n1cc(C(=O)O)c(=O)cc1-2,1.4,1.4,104,–,–,–,–,Activity [13]: Toxic
COc1cc2c(cc1OCC1COc3cc(C)ccc3O1)CC(C(C)C)n1cc(C(=O)O)c(=O)cc1-2 (stereo not drawn),–,–,–,10.1,3.5,179,11600,–
COc1cc2c(cc1OCC1COc3cccc(F)c3O1)CC(C(C)C)n1cc(C(=O)O)c(=O)cc1-2 (stereo not drawn),–,–,–,37.2,1.6,57.3,21500,–
